System: contracting CMs (cardiomyocytes)
Test: P-CeG (plasmonic cardio-eukaryography) signal of contracting cardiomyocytes cultured on gold SPR sensor, consecutive drug injections
Type: cell-based
Text: The device as shown in FIGS. 1(a) and 1(c) was used for experiments and studies. The device had dimensions of 12 cm×7.5 cm×5 cm and had micro LEDs, LED splitters, micro prisms, micro polarizers, and micro detectors that induced plasmonic waveguides and detected changes in the electrical/mechanical activity of a cell membrane. Cellular function of mechanical and electrical origins was filtered and sorted using software in operable communication with the sensing platform, and was then compared to the physiological parameters of a healthy cell. […] The hinged cap (fluidic module) had heavy-duty gaskets made from PDMS attached thereto. Micropumps and microtubing on the were used to drive the flow of the cell medium from its attached reservoir. The base of the device acted as a Faraday cage for the micro settings of plasmonic induction and detection, as well as related PCB boards and computer interface connectors of the sensing platform. The refraction index of the prisms was […] (each prism was a BK7 prism from a BI2000 device (Biosensing Instruments, AZ). The cell-SPR model discussed herein with reference to FIGS. 2(a)-2(f) was used as the cell-SPR model for experiments.
Empirical P-CeG data was correlated to the mathematical model of charge distribution near CM's cell membrane. FIG. 10(a) illustrates the four phases in a CM's action potential, field potential, and force of contraction profile (top to bottom, respectively) over time. The dashed vertical lines show phases 0, 1, 2, and 3 of the CM's electromechanical activities. […] Values were extracted using equations from the cell-SPR model. […] Arrows from left to right in the bottom graph depict the depolarization amplitude (DA), field potential duration (FPD), and the repolarization amplitude (RA) as the main features of a CM's field potential. These are also elaborated on in FIG. 10(e) and FIG. 10(f).
Feature extraction was performed on a P-CeG signal and its correlated charge profile of contracting CMs. FIGS. 11(a), 11(b), and 11(c) show amplitude, full width at half maximum (FWHM), and inter-beat intervals (IBI), respectively, for a 100-second epoch from the P-CeG signal obtained from 12 CM-cultured gold sensors. The high variability of values across different sensors is due to the selected methodology for cell isolation and non-ideal experimental conditions (room temperature and without CO2). FIGS. 11(d), 11(e), and 11(f) show DA, RA, and FPD of contracting CMs obtained from their charge profile.
Analysis was performed using blebbistatin as the cells to be analyzed. Consecutive injections of 1 micromolar (04), 3 μM, 5 μM, 7 and 9 μM blebbistatin were performed, and the P-CeG signals were recorded and analyzed. […] A decrease of the control sample's amplitude and high variability in the FWHM of data with time indicate decreased cellular functionality due to non-ideal experimental conditions. Average data are reported as mean±std: 1-way ANOVA, p<0.0001, 95% CI.
Analysis was performed using verapamil as the cells to be analyzed. Consecutive injections of 50 nanomolar (nM), 100 nM, 200 nM, and 500 nM verapamil were performed, and the P-CeG signals were recorded and analyzed. […] Average data are reported as mean±std: 1-way ANOVA, p<0.0001, 95% CI. […] Referring to FIGS. 14(k) and 14(l), an increase in FPD and FWHM of the signals is distinctly observable with increasing verapamil concentrations.
Analysis was performed using caffeine as the cells to be analyzed. Consecutive injections of 2 millimolar (mM), 4 mM, 6 mM, and 8 mM caffeine were performed, and the P-CeG signals were recorded and analyzed. […] Average data are reported as mean±std: 1-way ANOVA, p<0.0001, 95% CI.

Cc1ccc2c(c1)C(=O)C1(O)CCN(c3ccccc3)C1=N2 (stereo not drawn) [blebbistatin]
P-CeG signal amplitude (refractive index change) (consecutive injections of 1, 3, 5, 7 and 9 μM blebbistatin vs control, FIGS. 13(a), 13(b), 13(d)): continuous decrease in signal amplitude
signal's peak amplitudes (normalized refractive angle change) (five concentrations of blebbistatin 1-9 μM, FIG. 13(i)): decreased
FWHM duration (five concentrations of blebbistatin 1-9 μM, FIG. 13(j)): higher variability
cell signaling rate (action potential per minute, APM) (five concentrations of blebbistatin 1-9 μM, FIG. 13(k)): relatively unchanged
depolarization amplitude (DA) (increasing blebbistatin concentrations 1-9 μM, FIG. 13(f)): no significant difference
repolarization amplitude (RA) (increasing blebbistatin concentrations 1-9 μM, FIG. 13(g)): no significant difference
field potential duration (FPD) (increasing blebbistatin concentrations 1-9 μM, FIG. 13(h)): showed a decrease

COc1ccc(CCN(C)CCCC(C#N)(c2ccc(OC)c(OC)c2)C(C)C)cc1OC (stereo not drawn) [verapamil]
P-CeG signal amplitude (refractive index change) (consecutive injections of 50, 100, 200 and 500 nM verapamil vs control, FIGS. 14(a), 14(b), 14(d)): sharp decrease in signal amplitude
peak amplitudes (normalized refractive angle change) (increasing verapamil concentration 50-500 nM, FIG. 14(h)): decreased
FWHM duration (increasing verapamil concentration 50-500 nM, FIG. 14(i)): slightly increases before it becomes undetectable and is counted as zero
cell signaling rate (action potential per minute, APM) (increasing verapamil concentration 50-500 nM, FIG. 14(j)): decreased
depolarization amplitude (DA) (increasing verapamil concentrations 50-500 nM, FIG. 14(e)): no significant difference
repolarization amplitude (RA) (increasing verapamil concentrations 50-500 nM, FIG. 14(f)): no significant difference
field potential duration (FPD) (increasing verapamil concentrations 50-500 nM, FIG. 14(g)): showed an increase

Cn1c(=O)c2c(ncn2C)n(C)c1=O [caffeine]
P-CeG signal amplitude (refractive index change) (consecutive injections of 2, 4, 6 and 8 mM caffeine vs control, FIGS. 15(a), 15(b), 15(d)): presence of detectable signal amplitude
peak amplitudes (normalized refractive angle change) (increased caffeine concentrations 2-8 mM, FIG. 15(i)): relatively unchanged
FWHM duration (increased caffeine concentrations 2-8 mM, FIG. 15(j)): relatively unchanged
cell signaling rate (action potential per minute, APM) (increased caffeine concentrations 2-8 mM, FIG. 15(k)): decreases
depolarization amplitude (DA) (increasing caffeine concentrations 2-8 mM, FIG. 15(f)): no significant difference
repolarization amplitude (RA) (increasing caffeine concentrations 2-8 mM, FIG. 15(g)): no significant difference
field potential duration (FPD) (increasing caffeine concentrations 2-8 mM, FIG. 15(h)): slight increase

Reference: patent US11486825B1, “Devices and methods for analysis of biological matter using plasmon resonance” (THE FLORIDA INTERNATIONAL UNIVERSITY BOARD OF TRUSTEES, priority 2022, dated 2022)
